Reference: patent US9187472B2 (AbbVie Inc., priority 2012, dated 2015)

What was measured:
[1] = tested on: PC3 cells; test: NAMPT Cell Proliferation Assay; format: cell-based; conditions: Homo sapiens, PC-3, 120 h, 5 days incubation, cell viability by Cell Titer Glo
How it was run: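 IC50 values derive from sigmoidal dose-response fits of percent inhibition of PC3 viability, measured by luminescence after 5 days of compound treatment. Cells (500/well, RPMI containing 10% heat-inactivated FBS) are allowed to attach overnight, and compounds are tested at 10-fold dilutions between 10 μM and 1×10^−5 μM.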

[2] = molecular target: NAMPT (human, recombinant, C-terminally His-tagged) (Homo sapiens, UniProt P43490); test: Time-Resolved Fluorescence Resonance Energy Transfer (TR-FRET) Binding Assay of NAMPT; conditions: without substrates; 6.8 nM NAMPT, 200 nM probe, 3 hours equilibration
How it was run: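 Competitive binding against an Oregon Green 488 tracer (200 nM), 6.8 nM His-tagged enzyme, 1 nM Tb antibody, 2% DMSO, 3 h at RT. IC50 derived from TR-FRET ratios.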

[3] = molecular target: NAMPT (Homo sapiens, UniProt P43490); test: TR-FRET Binding Assay of NAMPT with PRPP; conditions: with 200 μM PRPP and 2.5 mM ATP; 2 nM NAMPT, 2 nM probe, 16 hours equilibration
How it was run: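 Read-out is TR-FRET after a 16 h equilibration allowing possible compound modification by the enzyme. Final mix: 2 nM NAMPT, 2 nM probe, 1 nM Tb-anti-His antibody, 200 μM PRPP, 2.5 mM ATP, 2% DMSO.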

NAMPT (human, recombinant, C-terminally His-tagged), sequence (P43490 whole entry): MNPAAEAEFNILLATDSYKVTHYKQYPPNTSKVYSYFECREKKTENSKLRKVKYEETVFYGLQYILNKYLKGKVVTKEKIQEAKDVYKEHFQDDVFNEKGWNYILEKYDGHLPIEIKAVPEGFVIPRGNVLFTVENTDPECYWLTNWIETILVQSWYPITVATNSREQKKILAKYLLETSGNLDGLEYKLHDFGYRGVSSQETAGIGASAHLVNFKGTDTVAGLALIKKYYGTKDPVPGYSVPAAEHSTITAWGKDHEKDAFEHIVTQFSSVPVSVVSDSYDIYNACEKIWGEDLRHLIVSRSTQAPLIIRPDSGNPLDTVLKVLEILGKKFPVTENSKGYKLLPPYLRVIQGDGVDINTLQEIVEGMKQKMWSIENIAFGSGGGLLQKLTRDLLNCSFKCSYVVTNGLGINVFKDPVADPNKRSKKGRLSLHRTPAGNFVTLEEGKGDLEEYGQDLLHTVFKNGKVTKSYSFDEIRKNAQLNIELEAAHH
NAMPT, sequence (P43490 whole entry): as above

| Structure (SMILES) | IC50 [1] | IC50 [2] | IC50 [3] |
| --- | --- | --- | --- |
| O=C(CC1CCCC1)Nc1ccc(C(=O)NCc2ccn3ccnc3c2)c(F)c1 [Example 463, 4-[(cyclopentylacetyl)amino]-2-fluoro-N-(imidazo[1,2-a]pyridin-7-ylmethyl)benzamide] | 234 nM | 314 nM | 0.529 nM |
| CC(=O)N1CC(Oc2ccc(NC(=O)NCc3ccn4ccnc4c3)cc2)C1 [Example 424, 1-{4-[(1-acetylazetidin-3-yl)oxy]phenyl}-3-(imidazo[1,2-a]pyridin-7-ylmethyl)urea] | 521 nM | 988 nM | 0.494 nM |
| CC(C)(O)C(=O)N1CC=C(c2ccc(NC(=O)Nc3ccc4nccn4c3)cc2)CC1 [Example 29, 1-{4-[1-(2-hydroxy-2-methylpropanoyl)-1,2,3,6-tetrahydropyridin-4-yl]phenyl}-3-imidazo[1,2-a]pyridin-6-ylurea] | 43.9 nM | 168 nM | 0.236 nM |
| O=C(CC1CCOC1)NC1(c2ccc(C(=O)NCc3ccn4ccnc4c3)s2)COC1 (stereo not drawn) [Example 326, N-(imidazo[1,2-a]pyridin-7-ylmethyl)-5-{3-[(tetrahydrofuran-3-ylacetyl)amino]oxetan-3-yl}thiophene-2-carboxamide] | 457 nM | 2350 nM | 1.3 nM |
| O=C(NCc1ccn2ccnc2c1)c1ccc(C2CCN(C(=O)[C@@H]3CCCO3)CC2)cc1 [Example 311, N-(imidazo[1,2-a]pyridin-7-ylmethyl)-4-{1-[(2S)-tetrahydrofuran-2-ylcarbonyl]piperidin-4-yl}benzamide] | 19.1 nM | 289 nM | 0.274 nM |
| CCCC(=O)N1CC[C@H](Oc2ccc(C(=O)NCc3ccn4ccnc4c3)cc2)C1 [Example 350, 4-{[(3S)-1-butanoylpyrrolidin-3-yl]oxy}-N-(imidazo[1,2-a]pyridin-7-ylmethyl)benzamide] | 8170 nM | > 10000 nM | 0.795 nM |
| O=C(NCc1ccc2nccn2c1)c1cnc(N(CC2CCCO2)C(=O)CCc2ccno2)s1 (stereo not drawn) [Example 133, N-(imidazo[1,2-a]pyridin-6-ylmethyl)-2-{[3-(1,2-oxazol-5-yl)propanoyl](tetrahydrofuran-2-ylmethyl)amino}-1,3-thiazole-5-carboxamide] | 2.16 nM | 67 nM | 0.709 nM |
| O=C(NCc1ccn2ccnc2c1)Nc1ccc(O[C@@H]2CCN(C(=O)c3ccccc3)C2)cc1 [Example 329, 1-(4-{[(3R)-1-benzoylpyrrolidin-3-yl]oxy}phenyl)-3-(imidazo[1,2-a]pyridin-7-ylmethyl)urea] | 12.4 nM | 30.8 nM | 0.169 nM |
| O=C(NCc1ccn2ccnc2c1)c1ccc(C2CCN(C(=O)CC(F)(F)F)CC2)cc1 [Example 504, N-(imidazo[1,2-a]pyridin-7-ylmethyl)-4-[1-(3,3,3-trifluoropropanoyl)piperidin-4-yl]benzamide] | 15.4 nM | 185 nM | 0.361 nM |
| CC(C)[C@H]1COC(=O)N1c1ncc(C(=O)NCc2ccn3ccnc3c2)s1 [Example 185, N-(imidazo[1,2-a]pyridin-7-ylmethyl)-2-[(4S)-2-oxo-4-(propan-2-yl)-1,3-oxazolidin-3-yl]-1,3-thiazole-5-carboxamide] | 5050 nM | > 10000 nM | 1.86 nM |
| CC(C)(O)C(=O)N1CC[C@H](Oc2ccc(C(=O)NCc3ccn4ccnc4c3)cc2)C1 [Example 348, 4-{[(3S)-1-(2-hydroxy-2-methylpropanoyl)pyrrolidin-3-yl]oxy}-N-(imidazo[1,2-a]pyridin-7-ylmethyl)benzamide] | > 10000 nM | > 10000 nM | 1.52 nM |
| O=C(NCc1ccc2nccn2c1)c1ccc(OC2CCN(C(=O)C3CCOCC3)CC2)cc1 [Example 162, N-(imidazo[1,2-a]pyridin-6-ylmethyl)-4-{[1-(tetrahydro-2H-pyran-4-ylcarbonyl)piperidin-4-yl]oxy}benzamide] | 43.6 nM | 2570 nM | 2.09 nM |
| CC(C)(C)OC(=O)N1CC[C@H](Oc2ccc(NC(=O)NCc3ccn4ccnc4c3)cc2)C1 [Example 291, tert-butyl (3S)-3-(4-{[(imidazo[1,2-a]pyridin-7-ylmethyl)carbamoyl]amino}phenoxy)pyrrolidine-1-carboxylate] | 26.1 nM | 159 nM | 0.449 nM |
| CCOCC(=O)N1CC=C(c2ccc(NC(=O)Nc3ccc4nccn4c3)cc2)CC1 [Example 31, 1-{4-[1-(ethoxyacetyl)-1,2,3,6-tetrahydropyridin-4-yl]phenyl}-3-imidazo[1,2-a]pyridin-6-ylurea] | 107 nM | 739 nM | 0.311 nM |
| O=C(NCc1ccn2ccnc2c1)c1ccc(-c2cnn(CC3CCOCC3)c2)o1 [Example 480, N-(imidazo[1,2-a]pyridin-7-ylmethyl)-5-[1-(tetrahydro-2H-pyran-4-ylmethyl)-1H-pyrazol-4-yl]furan-2-carboxamide] | 7.43 nM | 181 nM | 0.342 nM |
| O=C(NCc1ccn2ccnc2c1)c1ccc(C2CN(C(=O)C3CCCCC3)C2)cc1 [Example 660, 4-[1-(cyclohexylcarbonyl)azetidin-3-yl]-N-(imidazo[1,2-a]pyridin-7-ylmethyl)benzamide] | 70.9 nM | 282 nM | 0.693 nM |
| O=C(NCc1ccn2ccnc2c1)c1ccc(C2CCN(S(=O)(=O)c3ccccc3)CC2)cc1 [Example 682, N-(imidazo[1,2-a]pyridin-7-ylmethyl)-4-[1-(phenylsulfonyl)piperidin-4-yl]benzamide] | 771 nM | 607 nM | 1.58 nM |
| CC[C@H](C)C(=O)N1CC(c2ccc(C(=O)NCc3ccn4ccnc4c3)cc2)C1 [Example 547, N-(imidazo[1,2-a]pyridin-7-ylmethyl)-4-{1-[(2S)-2-methylbutanoyl]azetidin-3-yl}benzamide] | 25.6 nM | 498 nM | 0.423 nM |
| O=C(NCc1ccn2ccnc2c1)Nc1ccc(C2CN(C(=O)C3CCOCC3)C2)cc1 [Example 460, 1-(imidazo[1,2-a]pyridin-7-ylmethyl)-3-{4-[1-(tetrahydro-2H-pyran-4-ylcarbonyl)azetidin-3-yl]phenyl}urea] | 50.9 nM | 569 nM | 0.307 nM |
| O=C(CC1CCCC1)Nc1ccc(CNC(=O)c2ccc3nccn3c2)cc1 [Example 84, N-{4-[(cyclopentylacetyl)amino]benzyl}imidazo[1,2-a]pyridine-6-carboxamide] | 762 nM | 1670 nM | 10.9 nM |
| O=C(NCc1ccn2ccnc2c1)c1ccc(O[C@H]2CCN(C(=O)[C@@H]3CCCO3)C2)cc1 [Example 341, N-(imidazo[1,2-a]pyridin-7-ylmethyl)-4-({(3S)-1-[(2S)-tetrahydrofuran-2-ylcarbonyl]pyrrolidin-3-yl}oxy)benzamide] | 8300 nM | > 10000 nM | 0.719 nM |
| O=C(NCc1ccn2ccnc2c1)c1ccc(C2CCN(C(=O)Cc3ccccc3F)C2)s1 (stereo not drawn) [Example 765, 5-{1-[(2-fluorophenyl)acetyl]pyrrolidin-3-yl}-N-(imidazo[1,2-a]pyridin-7-ylmethyl)thiophene-2-carboxamide] | 2.91 nM | 36.5 nM | 0.782 nM |
| O=C(NCc1ccc2nccn2c1)c1ccc(OC2CCN(C(=O)CC(F)(F)F)CC2)cc1 [Example 170, N-(imidazo[1,2-a]pyridin-6-ylmethyl)-4-{[1-(3,3,3-trifluoropropanoyl)piperidin-4-yl]oxy}benzamide] | 604 nM | 3360 nM | 2.25 nM |
| O=C(NCc1ccn2ccnc2c1)Nc1ccc(C2CCN(C(=O)[C@H]3CCCO3)CC2)cc1 [Example 289, 1-(imidazo[1,2-a]pyridin-7-ylmethyl)-3-(4-{1-[(2R)-tetrahydrofuran-2-ylcarbonyl]piperidin-4-yl}phenyl)urea] | 9.33 nM | 155 nM | 0.286 nM |
| O=C(NCc1ccn2ccnc2c1)c1ccc(C2CCN(C(=O)CC3CCCO3)CC2)cc1 (stereo not drawn) [Example 235, N-(imidazo[1,2-a]pyridin-7-ylmethyl)-4-[1-(tetrahydrofuran-2-ylacetyl)piperidin-4-yl]benzamide] | 55.5 nM | 494 nM | 0.369 nM |
| O=C(CN1CCOCC1)Nc1ccc(C(=O)NCc2ccc3nccn3c2)cc1 [Example 80, N-(imidazo[1,2-a]pyridin-6-ylmethyl)-4-[(morpholin-4-ylacetyl)amino]benzamide] | 19.4 nM | 228 nM | 5.71 nM |
| O=C(NCc1ccn2ccnc2c1)c1ccc(C2CCN(C(=O)c3ccc(F)cc3)C2)cc1 (stereo not drawn) [Example 562, 4-[1-(4-fluorobenzoyl)pyrrolidin-3-yl]-N-(imidazo[1,2-a]pyridin-7-ylmethyl)benzamide] | 70.9 nM | 218 nM | 0.607 nM |
| CS(=O)(=O)N1CCC(c2ccc(C(=O)NCc3ccn4ccnc4c3)s2)CC1 [Example 271, N-(imidazo[1,2-a]pyridin-7-ylmethyl)-5-[1-(methylsulfonyl)piperidin-4-yl]thiophene-2-carboxamide] | 2.71 nM | 51.7 nM | 0.169 nM |
